Experimental data reported in patent US10472341B2, “Bicyclic tetrahydrothiazepine derivatives useful for the treatment of neoplastic and/or infectious diseases” (APEIRON BIOLOGICS AG, priority 2015, dated 2019).
Like-named read-outs stand apart in the source and are kept apart here.

Key:
[1] = tested on: aCD3/aCD28-stimulated human CD4+-T-cells; test: IL-2 production and activation markers in aCD3/aCD28 stimulated isolated human CD4+-T-cells; format: cell-based; settings: IL-2 production at 3 μM compound
Protocol: • Buffy coat content was transferred to sterile plastic bottle and filled up to 480 ml with PBS, and distributed equally to 16×50 ml tubes (30 ml/tube) • Underlayed with ˜11 ml Lymphoprep and centrifuged 20 min (2200 rpm) • The interphase containing lymphocytes was taken off with transfer pipette, cells were washed twice with PBS and pooled to one tube to determine cell count (Coulter Diff ACT) Isolation of Immune Cell Subfractions from PBMCs by MACS • PBMCs were resuspended in MACS buffer (80 μl MACS-buffer/10^7 cells) and cells were isolated with Auto-MACS device using respective kits following manufacturer's recommendations TCR Stimulation and Measurement of T Cell Activation
Isolated T cells were plated in Xvivo medium at 1.5*10 ^5 cells per in 96 well culture plates and TCR-stimulated with anti-CD3/28 mAbs in the presence of compound as indicated. Cytokine production was determined at 24 h or 48 h following TCR stimulation in cell culture supernatants using commercially available ELISA kits (BD and eBioscience) as recommended by the manufacturer. T cell proliferation and CD25 expression (CD25-PC5 reagent purchased from Beckman Coulter) was determined by flow cytometry (Beckman-Coulter FC500) and analysed with Kaluza Software. For measurement of CD69 expression, isolated CD4 and CD8 T cells were plated in Xvivo medium at […] per in 96 well culture plates and TCR-stimulated with anti-CD3/28 mAbs in the presence of compound. CD69 expression was determined at 24 h following TCR stimulation by flow cytometry (CD4eF450, CD8APCeF780 and CD69-PC7 reagent purchased from eBioscience) and analysed with Kaluza Software.
Buffy coats were obtained from Austrian Red Cross, diluted 3 fold with PBS and layered onto an isotonic Ficoll separating solution d=1.077 g/m in 50 ml centrifuge tubes. The tubes were centrifuged at 914 g for 25 min at room temperature with the brakes off. The PBMC layer was removed and washed twice with ice-cold PBS. CD4 T cells were isolated using CD4 microbeads (Milteny) and the AutoMACS device following manufacturer's instructions.
Compound examples of the present invention were classified according to the following activity criteria and are listed in Table 4a: • Activity Class A: IL-2 production at 3 μM compound concentration >10 ng/mL • Activity Class B: IL-2 production at 3 μM compound concentration between 2-10 ng/mL • Activity Class C: IL-2 production at 3 μM compound concentration between 2-fold increase as compared to mean IL-2 production of stimulated cells in the absence of compounds and <2 ng/mL

[2] = tested on: aCD3/aCD28-stimulated human PBMCs; test: Cytokine production in aCD3/aCD28 stimulated human PBMCs; format: cell-based; settings: PBMC, 18 h
Protocol: In order to determine the immune modulatory effect of compounds of compounds of the present invention in human PBMCs, compounds were assessed in the following assay set-up:
Buffy coats were obtained from a local hospital, diluted 3 fold with PBS and layered onto an isotonic Ficoll separating solution d=1.077 g/mL in 50 mL centrifuge tubes. The tubes were centrifuged at 914 g for 25 min at room temperature with the brakes off. The PBMC layer was removed and washed twice with ice-cold PBS. Erythrocytes were lysed by addition of ddH2O and cells were resuspended in X-Vivo15 (Lonza).
1e6 cells/mL were stimulated with soluble anti CD3/CD28 antibodies (1 μg/mL both, clones OKT3 and 28.2) in the presence of described compounds. Cells were incubated for 18 h at 37° C., 5% CO2. Assay plates were centrifuged at 400 g for 5 min and supernatants harvested. Cytokine concentration in tissue culture supernatants were determined with MSD or HTRF kits (MSD and Cisbio), according to manufacturer's instructions.

[3] = enhancement of IFN-γ production, read-out: Activity Class IFN-γ
[4] = enhancement of IL-2 production, read-out: Activity Class IL-2

Structure (SMILES)	Activity Class CD4+ [1]	EC50 [2, 3] [µM]	EC50 [2, 4] [µM]
Cl.N[C@H]1CS(=O)(=O)c2cc(F)c(C(=O)N[C@@H]3CC3(F)F)cc2N(Cc2ccc(Cl)cc2)C1=O (single isomer, unassigned) [Example 106]	B (IL-2 production at 3 μM compound concentration between 2-10 ng/mL)	–	–
Cl.N[C@H]1CSc2ccc(C(=O)NC3CCOCC3)cc2N(Cc2ccc(OC(F)(F)F)cc2)C1=O [Example 8, (3R)-3-amino-N-(oxan-4-yl)-4-oxo-5-{[4-(trifluoromethoxy)phenyl]methyl}-2,3,4,5-tetrahydro-1,5-benzothiazepine-7-carboxamide hydrochloride]	C (IL-2 production at 3 μM compound concentration between 2-fold increase as compared to mean IL-2 production of stimulated cells in the absence of compounds and <2 ng/mL)	–	–
CCCCNC(=O)c1ccc2c(c1)N(Cc1ccc(N3CCOCC3)cc1)C(=O)[C@@H](N)CS2.Cl [Example 13, (3R)-3-amino-N-butyl-5-{[4-(morpholin-4-yl)phenyl]methyl}-4-oxo-2,3,4,5-tetrahydro-1,5-benzothiazepine-7-carboxamide hydrochloride]	C (IL-2 production at 3 μM compound concentration between 2-fold increase as compared to mean IL-2 production of stimulated cells in the absence of compounds and <2 ng/mL)	–	–
Cl.N[C@H]1CSc2cc(F)c(C(=O)NC3CCOCC3)cc2N(Cc2ccc(OC(F)(F)F)cc2)C1=O [Example 14, (3R)-3-amino-8-fluoro-N-(oxan-4-yl)-4-oxo-5-{[4-(trifluoromethoxy)phenyl]methyl}-2,3,4,5-tetrahydro-1,5-benzothiazepine-7-carboxamide hydrochloride]	C (IL-2 production at 3 μM compound concentration between 2-fold increase as compared to mean IL-2 production of stimulated cells in the absence of compounds and <2 ng/mL)	–	–
CC(C)NC(=O)c1cc2c(cc1F)SC[C@H](N)C(=O)N2Cc1ccc(OC(F)(F)F)cc1.Cl [Example 15, (3R)-3-amino-8-fluoro-4-oxo-N-(propan-2-yl)-5-{[4-(trifluoromethoxy)phenyl]-methyl}-2,3,4,5-tetrahydro-1,5-benzothiazepine-7-carboxamide hydrochloride]	B (IL-2 production at 3 μM compound concentration between 2-10 ng/mL)	–	–
Cl.N[C@H]1CSc2cc(F)c(C(=O)NCc3ccccc3)cc2N(Cc2ccc(OC(F)(F)F)cc2)C1=O [Example 16, (3R)-3-amino-N-benzyl-8-fluoro-4-oxo-5-{[4-(trifluoromethoxy)phenyl]methyl}-2,3,4,5-tetrahydro-1,5-benzothiazepine-7-carboxamide hydrochloride]	B (IL-2 production at 3 μM compound concentration between 2-10 ng/mL)	–	–
CC(=O)NCCCCCOc1ccc(CNC(=O)c2ccc3c(c2)N(Cc2ccc(OC(F)(F)F)cc2)C(=O)[C@@H](N)CS3)cc1.Cl [Example 19, (3R)-3-amino-N-({4-[(5-acetamidopentyl)oxy]phenyl}methyl)-4-oxo-5-{[4-(trifluoromethoxy)phenyl]methyl}-2,3,4,5-tetrahydro-1,5-benzothiazepine-7-carboxamide hydrochloride]	C (IL-2 production at 3 μM compound concentration between 2-fold increase as compared to mean IL-2 production of stimulated cells in the absence of compounds and <2 ng/mL)	–	–
CC(C)(C)c1cc(NC(=O)c2ccc3c(c2)N(Cc2ccc(Cl)cc2)C(=O)[C@@H](N)CS3)no1.Cl [Example 24, (3R)-3-amino-N-(5-tert-butyl-1,2-oxazol-3-yl)-5-[(4-chlorophenyl)methyl]-4-oxo-2,3,4,5-tetrahydro-1,5-benzothiazepine-7-carboxamide hydrochloride]	C (IL-2 production at 3 μM compound concentration between 2-fold increase as compared to mean IL-2 production of stimulated cells in the absence of compounds and <2 ng/mL)	–	–
Cl.N[C@H]1CSc2ccc(C(=O)NCc3ccc(F)cc3)cc2N(Cc2ccc(-c3csnn3)cc2)C1=O [Example 32, (3R)-3-amino-N-[(4-fluorophenyl)methyl]-4-oxo-5-{[4-(1,2,3-thiadiazol-4-yl)phenyl]-methyl}-2,3,4,5-tetrahydro-1,5-benzothiazepine-7-carboxamide hydrochloride]	C (IL-2 production at 3 μM compound concentration between 2-fold increase as compared to mean IL-2 production of stimulated cells in the absence of compounds and <2 ng/mL)	–	–
N[C@H]1CSc2ccc(C(=O)NCC3CCOCC3)cc2N(Cc2ccc(F)cc2)C1=O [Example 45, (3R)-3-amino-5-[(4-fluorophenyl)methyl]-N-(oxan-4-ylmethyl)-4-oxo-2,3,4,5-tetrahydro-1,5-benzothiazepine-7-carboxamide]	C (IL-2 production at 3 μM compound concentration between 2-fold increase as compared to mean IL-2 production of stimulated cells in the absence of compounds and <2 ng/mL)	–	–
CCCCNC(=O)c1ccc2c(c1)N(Cc1ccc(C(N)=O)cc1)C(=O)[C@@H](N)CS2.Cl [Example 47, (3R)-3-amino-N-butyl-5-[(4-carbamoylphenyl)methyl]-4-oxo-2,3,4,5-tetrahydro-1,5-benzothiazepine-7-carboxamide hydrochloride]	C (IL-2 production at 3 μM compound concentration between 2-fold increase as compared to mean IL-2 production of stimulated cells in the absence of compounds and <2 ng/mL)	–	–
C[C@H](NC(=O)c1ccc2c(c1)N(Cc1ccc(Cl)cc1)C(=O)[C@@H](N)CS2)c1ccc(F)cc1.Cl [Example 49, (3R)-3-amino-5-[(4-chlorophenyl)methyl]-N-[(1S)-1-(4-fluorophenyl)ethyl]-4-oxo-2,3,4,5-tetrahydro-1,5-benzothiazepine-7-carboxamide hydrochloride]	C (IL-2 production at 3 μM compound concentration between 2-fold increase as compared to mean IL-2 production of stimulated cells in the absence of compounds and <2 ng/mL)	–	–
Cl.N[C@H]1CSc2cc(F)c(C(=O)NNc3ccc(F)cc3)cc2N(Cc2ccc(Cl)cc2)C1=O [Example 52, (3R)-3-amino-5-[(4-chlorophenyl)methyl]-8-fluoro-N′-(4-fluorophenyl)-4-oxo-2,3,4,5-tetrahydro-1,5-benzothiazepine-7-carbohydrazide hydrochloride]	C (IL-2 production at 3 μM compound concentration between 2-fold increase as compared to mean IL-2 production of stimulated cells in the absence of compounds and <2 ng/mL)	–	–
C#CCCCNC(=O)c1cc2c(cc1F)S(=O)(=O)C[C@H](N)C(=O)N2Cc1ccc(Cl)cc1 [Example 174, (3R)-3-amino-5-[(4-chlorophenyl)methyl]-8-fluoro-1,1,4-trioxo-N-(pent-4-yn-1-yl)-2,3,4,5-tetrahydro-1λ^6,5-benzothiazepine-7-carboxamide]	–	1.58 to 5.01	1.58 to 5.01
COc1ccc(CNC(=O)c2ccc3c(c2)N(Cc2ccc(Cl)cc2)C(=O)[C@@H](N)CS3(=O)=O)cn1 [Example 177, (3R)-3-amino-5-[(4-chlorophenyl)methyl]-N-[(6-methoxypyridin-3-yl)methyl]-1,1,4-trioxo-2,3,4,5-tetrahydro-1λ^6,5-benzothiazepine-7-carboxamide]	–	< 1.58	1.58 to 5.01
N[C@H]1CS(=O)(=O)c2ccc(C(=O)NC3CC4(COC4)C3)cc2N(Cc2ccc(Cl)cc2)C1=O [Example 181, (3R)-3-amino-5-[(4-chlorophenyl)methyl]-N-{2-oxaspiro[3.3]heptan-6-yl}-1,1,4-trioxo-2,3,4,5-tetrahydro-1λ^6,5-benzothiazepine-7-carboxamide]	–	> 5.01	> 5.01
CCN[C@H]1CS(=O)(=O)c2cc(F)c(C(=O)NCCCC(F)(F)F)cc2N(Cc2ccc(Cl)cc2)C1=O [Example 182, (3R)-5-[(4-chlorophenyl)methyl]-3-(ethylamino)-8-fluoro-1,1,4-trioxo-N-(4,4,4-trifluorobutyl)-2,3,4,5-tetrahydro-1λ^6,5-benzothiazepine-7-carboxamide]	–	1.58 to 5.01	> 5.01
